# Source: the supplement of paper PMC9663587
# Legend:
# THZ1 = compound: CN(C)C/C=C/C(=O)Nc1ccc(C(=O)Nc2cccc(Nc3ncc(Cl)c(-c4c[nH]c5ccccc45)n3)c2)cc1 [THZ1]; experiment: GR value, 72 h; higher = faster growth (1 = untreated, <0 = killing);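 also: breast cancer and non-malignant breast epithelial lines, nine half-log doses, viable cells counted by Hoechst and LIVE/DEAD dye imaging versus time-zero plates and DMSO controls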
# [1] = compound: CCN1CCN(Cc2ccc(Nc3ncc(F)c(-c4cc(F)c5nc(C)n(C(C)C)c5c4)n3)nc2)CC1; experiment: as above
# THZ531 [2] = compound: T1, CN(C)C/C=C/C(=O)Nc1ccc(C(=O)N2CCC[C@@H](Nc3ncc(Cl)c(-c4c[nH]c5ccccc45)n3)C2)cc1 [THZ531]; experiment: as above
# [3] = compound: CC(=O)c1c(C)c2cnc(Nc3ccc(N4CCNCC4)cn3)nc2n(C2CCCC2)c1=O; experiment: as above
# Rucaparib = compound: CNCc1ccc(-c2[nH]c3cc(F)cc4c3c2CCNC4=O)cc1 [Rucaparib]
# BSJ-01-175 = compound: CN(C)C/C=C/C(=O)Nc1ccc(O[C@@H]2CCC[C@@H](Nc3ncc(Cl)c(-c4c[nH]c5ccccc45)n3)C2)cc1 [BSJ-01-175]
# Tivantinib/ARQ197 = compound: O=C1NC(=O)[C@@H](c2cn3c4c(cccc24)CCC3)[C@@H]1c1c[nH]c2ccccc12 [Tivantinib/ARQ197]
# Pictilisib/GDC0941 = compound: CS(=O)(=O)N1CCN(Cc2cc3nc(-c4cccc5[nH]ncc45)nc(N4CCOCC4)c3s2)CC1 [Pictilisib/GDC0941]
# Cediranib/AZD2171 = compound: COc1cc2c(Oc3ccc4[nH]c(C)cc4c3F)ncnc2cc1OCCCN1CCCC1 [Cediranib/AZD2171]
# senexin b = compound: CN1CCN(C(=O)c2ccc3cc(CCNc4ncnc5ccc(C#N)cc45)ccc3c2)CC1 [senexin b]
# Ceritinib/LDK378 = compound: Cc1cc(Nc2ncc(Cl)c(Nc3ccccc3S(=O)(=O)C(C)C)n2)c(OC(C)C)cc1C1CCNCC1 [Ceritinib/LDK378]
# AZD6738 = compound: C[C@@H]1COCCN1c1cc(C2([S@](C)(=N)=O)CC2)nc(-c2cc[nH]c3nccc2-3)n1 [AZD6738]
# Paclitaxel = compound: CC(=O)O[C@H]1C(=O)[C@@]2(C)[C@H]([C@H](OC(=O)c3ccccc3)[C@]3(O)C[C@H](OC(=O)[C@H](O)[C@@H](NC(=O)c4ccccc4)c4ccccc4)C(C)=C1C3(C)C)[C@]1(OC(C)=O)CO[C@@H]1C[C@@H]2O [Paclitaxel]
# THZ531 [4] = compound: T1, THZ531
# 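For GR50, 72 h in this document: breast cancer and non-malignant breast epithelial cell lines, Deep Dye Drop or Dye Drop imaging, nine half-log doses, GR normalized to time-zero plates and DMSO-only controls.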
cell line,measurement,setting,value
BT549,GR value,THZ1; 0.03162 µM,0.69 GR
same,GR value,THZ1; 0.1 µM,0.16 GR
same,GR value,THZ1; 0.3162 µM,-0.171 GR
same,GR value,THZ1; 1 µM,-0.317 GR
same,GR value,[1]; 0.001 µM,0.992 GR
same,GR value,[1]; 0.003162 µM,1.03 GR
same,GR value,[1]; 0.01 µM,0.997 GR
same,GR value,[1]; 0.03162 µM,1.02 GR
same,GR value,[1]; 0.1 µM,0.952 GR
same,GR value,[1]; 0.3162 µM,0.963 GR
same,GR value,[1]; 1 µM,0.895 GR
same,GR value,[1]; 3.162 µM,0.588 GR
same,GR value,[1]; 10 µM,0.0335 GR
same,GR value,THZ531 [2]; 0.0001 µM,0.997 GR
same,GR value,THZ531 [2]; 0.0003162 µM,0.974 GR
same,GR value,THZ531 [2]; 0.001 µM,1.01 GR
same,GR value,THZ531 [2]; 0.003162 µM,1.01 GR
same,GR value,THZ531 [2]; 0.01 µM,1.04 GR
same,GR value,THZ531 [2]; 0.03162 µM,0.956 GR
same,GR value,THZ531 [2]; 0.1 µM,0.849 GR
same,GR value,THZ531 [2]; 0.3162 µM,0.51 GR
same,GR value,THZ531 [2]; 1 µM,-0.378 GR
same,GR value,[3]; 0.0003162 µM,1.02 GR
same,GR value,[3]; 0.001 µM,1.04 GR
same,GR value,[3]; 0.003162 µM,1.03 GR
same,GR value,[3]; 0.01 µM,1.06 GR
same,GR value,[3]; 0.03162 µM,1.06 GR
same,GR value,[3]; 0.1 µM,1.04 GR
same,GR value,[3]; 0.3162 µM,1.03 GR
same,GR value,[3]; 1 µM,1.08 GR
same,GR value,[3]; 3.162 µM,1.07 GR
same,"GR50, 72 h",Rucaparib,> 10 µM
same,"GR50, 72 h",BSJ-01-175,0.737 µM
same,"GR50, 72 h",Tivantinib/ARQ197,0.582 µM
same,"GR50, 72 h",Pictilisib/GDC0941,2.78 µM
same,"GR50, 72 h",Cediranib/AZD2171,3.64 µM
same,"GR50, 72 h",senexin b,> 10 µM
same,"GR50, 72 h",Ceritinib/LDK378,2.96 µM
same,"GR50, 72 h",AZD6738,3.97 µM
same,"GR50, 72 h",Paclitaxel,0.00272 µM
same,"GR50, 72 h",THZ531 [4],0.302 µM
